The structures appear in SMILES notation. Structures can show the parent of a compound that is named as a salt.

Results on 18 compounds are retold here after patent US11918582B2 (RAPT Therapeutics, Inc., priority 2021, dated 2024).

In this assay the target is T1, human HPK1 (MAP4K1) (Homo sapiens, UniProt Q92918).
T1 construct: Recombinant human HPK1 kinase domain was obtained from ThermoFisher (Cat. #PV6357) and SignalChem (Cat. #M23-11G); purchased ThermoFisher; SignalChem PV6357; M23-11G
T1 sequence (Q92918 17-274 limits assumed): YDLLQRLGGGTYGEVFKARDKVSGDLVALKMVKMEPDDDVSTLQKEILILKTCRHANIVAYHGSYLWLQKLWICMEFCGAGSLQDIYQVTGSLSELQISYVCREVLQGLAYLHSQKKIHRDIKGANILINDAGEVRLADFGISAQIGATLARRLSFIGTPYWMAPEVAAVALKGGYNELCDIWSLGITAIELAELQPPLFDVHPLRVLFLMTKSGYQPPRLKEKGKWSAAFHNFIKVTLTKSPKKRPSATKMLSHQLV
Put plainly: Biochemical assay for activity against HPK1 (ADP-Glo, MBP substrate). To be noted: recombinant human HPK1 kinase domain, 1 nM enzyme, ADP-Glo luminescence. In outline: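 Recombinant human HPK1 kinase domain (1 nM solution) preincubated 15 min at room temperature with compounds in pH 7.5 HEPES buffer with NaCl, TCEP, MgCl2, Tween-20, BSA. MBP substrate with ATP added, reaction run 2 h at room temperature. ADP formation read by ADP-Glo luminescence to give IC50.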
On to `CN1CCc2ccc(Nc3ncc4cnn(C5CC6(COC6)C5)c4n3)cc2C1` [Example 13, N-(1-(2-oxaspiro[3.3]heptan-6-yl)-1H-pyrazolo[3,4-d]pyrimidin-6-yl)-2-methyl-1,2,3,4-tetrahydroisoquinolin-7-amine], for which the IC50 is under 0.1 µM. For the compound `COc1cc2c(cc1Nc1ncc3cnn(C[C@@H]4C[C@@H](C)CN4C(C)=O)c3n1)CN(C)CC2` [Example 138, 1-((2S,4R)-2-((6-((6-methoxy-2-methyl-1,2,3,4-tetrahydroisoquinolin-7-yl)amino)-1H-pyrazolo[3,4-d]pyrimidin-1-yl)methyl)-4-methylpyrrolidin-1-yl)ethan-1-one], the IC50 is under 0.1 µM. The figure for `COc1cc2c(cc1Nc1ncc3cnn(CC4CCCNC4=O)c3n1)CN(C)CC2` (stereo not drawn) [Example 218, 3-[[6-[(6-methoxy-2-methyl-3,4-dihydro-1H-isoquinolin-7-yl)amino]pyrazolo[3,4-d]pyrimidin-1-yl]methyl]piperidin-2-one] is under 0.1 µM.

Turning to `COc1cc2c(cc1Nc1ncc3cnn([C@H]4CC[C@H](NS(C)(=O)=O)CC4)c3n1)CN(C)CC2` [Example 79, trans-N-[4-[6-[(6-methoxy-2-methyl-3,4-dihydro-1H-isoquinolin-7-yl)amino]pyrazolo[3,4-d]pyrimidin-1-yl]cyclohexyl]methanesulfonamide], the IC50 was under 0.1 µM.

`COc1cc2c(cc1Nc1ncc3cnn(C[C@H]4[C@@H](O)CCN4C(C)=O)c3n1)CN(C)CC2` [Example 131]: the 50% inhibitory concentration (IC50) is over 0.251 µM.

On to `CCC1CCCCC1n1ncc2cnc(Nc3cc4c(cc3OC)CCN(C)C4)nc21` (stereo not drawn) [Example 25, N-(1-(2-ethylcyclohexyl)-1H-pyrazolo[3,4-d]pyrimidin-6-yl)-6-methoxy-2-methyl-1,2,3,4-tetrahydroisoquinolin-7-amine], for which the IC50 is under 0.1 µM. With `COc1cc2c(cc1Nc1ncc3cnn(C4CCN(C(C)=O)CC4)c3n1)CN(C)CC2` [Example 106, 1-(4-(6-((6-methoxy-2-methyl-1,2,3,4-tetrahydroisoquinolin-7-yl)amino)-1H-pyrazolo[3,4-d]pyrimidin-1-yl)piperidin-1-yl)ethan-1-one trifluoroacetate] the figure was under 0.1 µM; with `COc1cc2c(cc1Nc1ncc3cnn([C@H]4C[C@](C)(CO)C4)c3n1)CN(C)CC2` [Example 76, trans-[3-[6-[(6-methoxy-2-methyl-3,4-dihydro-1H-isoquinolin-7-yl)amino]pyrazolo[3,4-d]pyrimidin-1-yl]-1-methyl-cyclobutyl]methanol], under 0.1 µM; with `COc1cc2c(cc1Nc1ncc3cnn(C[C@@H](C)NC(C)=O)c3n1)CN(C)CC2` [Example 97, N-[(1R)-2-[6-[(6-methoxy-2-methyl-3,4-dihydro-1H-isoquinolin-7-yl)amino]pyrazolo[3,4-d]pyrimidin-1-yl]-1-methyl-ethyl]acetamide], 0.1 to 0.25 µM. As for `COc1cc2c(cc1Nc1ncc3cnn([C@@H](C)CCO)c3n1)CN(C)CC2` [Example 100], the 50% inhibitory concentration (IC50) was under 0.1 µM.

On to `COc1cc2c(cc1Nc1ncc3cnn([C@H]4CC[C@H](O)CC4)c3n1)CN(CCO)CC2` [Example 156, trans-4-(6-((2-(2-hydroxyethyl)-6-methoxy-1,2,3,4-tetrahydroisoquinolin-7-yl)amino)-1H-pyrazolo[3,4-d]pyrimidin-1-yl)cyclohexan-1-ol], for which the IC50 is under 0.1 µM.

For the compound `COc1cc2c(cc1Nc1ncc3cnn(C[C@H]4C[C@H]4CO)c3n1)CN(C)CC2` (relative stereo) [Example 205, (cis-2-((6-((6-methoxy-2-methyl-1,2,3,4-tetrahydroisoquinolin-7-yl)amino)-1H-pyrazolo[3,4-d]pyrimidin-1-yl)methyl)cyclopropyl)methanol], the IC50 was under 0.1 µM.

With `CN1CCc2ccc(Nc3ncc4cnn(C)c4n3)cc2C1` [Example 5, 2-methyl-N-(1-methylpyrazolo[3,4-d]pyrimidin-6-yl)-3,4-dihydro-1H-isoquinolin-7-amine], the IC50 was under 0.1 µM. Regarding `COc1cc2c(cc1Nc1ncc3cnn(C[C@]4(C)CCCN4C(C)=O)c3n1)CN(C)CC2` [Example 135, (S)-1-(2-((6-((6-methoxy-2-methyl-1,2,3,4-tetrahydroisoquinolin-7-yl)amino)-1H-pyrazolo[3,4-d]pyrimidin-1-yl)methyl)-2-methylpyrrolidin-1-yl)ethan-1-one], the IC50 was under 0.1 µM. The figure for `COc1cc2c(cc1Nc1ncc3cnn(C[C@@H]4C[C@@H]5C[C@@H]5N4C(C)=O)c3n1)CN(C)CC2` [Example 216, 1-[(1S,3S,5S)-3-[[6-[(6-methoxy-2-methyl-3,4-dihydro-1H-isoquinolin-7-yl)amino]pyrazolo[3,4-d]pyrimidin-1-yl]methyl]-2-azabicyclo[3.1.0]hexan-2-yl]ethanone] is under 0.1 µM; for `COc1cc2c(cc1Nc1ncc3cnn(C[C@@H]4CCCN4C(C)=O)c3n1)[C@H](C)N(C)CC2` [Example 185, 1-((S)-2-((6-(((S)-6-methoxy-1,2-dimethyl-1,2,3,4-tetrahydroisoquinolin-7-yl)amino)-1H-pyrazolo[3,4-d]pyrimidin-1-yl)methyl)pyrrolidin-1-yl)ethan-1-one hydrochloride] it is under 0.1 µM; for `COc1cc2c(cc1Nc1ncc3cnn(C[C@@H]4CC[C@H](O)CN4C(C)=O)c3n1)CN(C)CC2` [Example 224, 1-((2S,5S)-5-hydroxy-2-((6-((6-methoxy-2-methyl-1,2,3,4-tetrahydroisoquinolin-7-yl)amino)-1H-pyrazolo[3,4-d]pyrimidin-1-yl)methyl)piperidin-1-yl)ethan-1-one] it is under 0.1 µM. For the compound `COc1cc2c(cc1Nc1ncc3cnn([C@H]4CC[C@H](C(=O)O)C4)c3n1)CN(C)CC2` (racemic) [Example 41, rac-(1S,3S)-3-(6-((6-methoxy-2-methyl-1,2,3,4-tetrahydroisoquinolin-7-yl)amino)-1H-pyrazolo[3,4-d]pyrimidin-1-yl)cyclopentane-1-carboxylic acid], the IC50 is 0.1 to 0.25 µM.
